According to paper PMC8774223, “Comparison of Antiplatelet Effects of Phenol Derivatives in Humans” (Biomolecules, 2022):
Converted amounts (≈) assume the structure as drawn. “And” between values parts separate entries of the source, which are not always exact repeats. Equal entries are not always repeated. “Also recorded” adds a separate entry of the source. Where two headings read alike, the source gives them in different places. Each block holds one compound with its values, some of them ahead of it.

Assays:
[1] = tested on: platelet aggregation triggered by AA; experiment: Arachidonic acid (AA)-induced platelet aggregation, whole blood aggregometry; assay type: cell-based, human; conditions: for IC50: Platelet
Procedure: (§1) Blood from 20 non-smoking, young (aged from 22 to 45 years, median 27), healthy volunteers was collected by venipuncture into plastic tubes containing heparin sodium (170 IU/10 mL; Zentiva, Prague, Czech Republic). No medication had been taken by volunteers 14 days prior blood collection and no alcohol had been consumed 12 h before the blood draw.
A total of 300 µL of whole blood was diluted with the same volume of 0.9 % sodium chloride (B.Braun, Melsungen, Germany) preheated to 37 °C and incubated with 5 µL of a tested compound dissolved in DMSO (Penta, Prague, Czech Republic) at a final concentration of 0.8% for 3 min at 37 °C. Platelet aggregation was then induced by addition of collagen (Diagnostica a.s., Czech Republic), arachidonic acid (AA) or Thrombin Receptor Activating Peptide (TRAP) (Roche Holding AG, Basel, Switzerland) and monitored for 6 min. The dose of inducer was initially set to the minimal concentration which caused maximal aggregation. The second calibration was carried out by use of standards, 4-methylcatechol in the case of AA- and collagen-triggered aggregation (Sigma-Aldrich) or vorapaxar for thrombin aggregation (Selleck Chemicals GmbH, Munich, Germany). […] For comparison, also the clinically used standard ASA was employed.

[2] = tested on: platelet aggregation induced by collagen; experiment: Collagen-induced platelet aggregation, whole blood aggregometry; assay type: cell-based, human; conditions: for IC25: Platelet, human whole blood, read-out: IC25 (Mean ± SD, μM) on Collagen-Induced Platelet Aggregation; for Effect on collagen-induced aggregation compared with ASA: comparison of 95% confidence intervals of fitted curves / IC25
Procedure: as §1, with “draw. The protocol was approved by the Ethics Committee of the Faculty of Pharmacy, Charles University on May 31, 2019.” for “draw.”
A total of 300 µL of whole blood was diluted with the same volume of 0.9 % sodium chloride (B.Braun, Melsungen, Germany) preheated to 37 °C and incubated with 5 µL of a tested compound dissolved in DMSO (Penta, Prague, Czech Republic) at a final concentration of 0.8% for 3 min at 37 °C. Platelet aggregation was then induced by addition of collagen (Diagnostica a.s., Czech Republic), arachidonic acid (AA) or Thrombin Receptor Activating Peptide (TRAP) (Roche Holding AG, Basel, Switzerland) and monitored for 6 min. The dose of inducer was initially set to the minimal concentration which caused maximal aggregation. The second calibration was carried out by use of standards, 4-methylcatechol in the case of AA- and collagen-triggered aggregation (Sigma-Aldrich) or vorapaxar for thrombin aggregation (Selleck Chemicals GmbH, Munich, Germany). The final concentrations of inducers were in the range of 0.16–2.42 µg/mL for collagen, 25–196 µM for AA and 0.8–9.8 µM for TRAP. For comparison, also the clinically used standard ASA was employed.

[3] = tested on: Nrf2; conditions: cited from earlier work; for Activation of Nrf2: many cell lines, effect observed even at 5 μM
[4] = tested on: anti-inflammatory activity; set-up: method as in PMID 30614688, doi:10.1016/j.jff.2019.01.047; conditions: 10 μM; cited from earlier work
[5] = tested on: hepatic HepG2; set-up: method as in PMID 35547925, PMID 30614688, doi:10.1016/j.jff.2019.01.047; conditions: cited from earlier work
[6] = tested on: human monocytic cell line THP-1; set-up: method as in PMID 35547925, PMID 30614688, doi:10.1016/j.jff.2019.01.047; conditions: cited from earlier work
[7] = tested on: MCF-7/S0.5 human breast cancer cell line; experiment: CellTiter 96 AQueous One Solution Cell Proliferation Assay; assay type: cell-based; conditions: 48 h
Procedure: MCF-7/S0.5 human breast cancer cell line adapted to low-sera conditions (ECACC, Porton Down, Salisbury, UK) was used. Cells were maintained at 37 °C and 5% CO2 and were passaged once a week. Dulbecco’s Modified Eagle Medium/Nutrient Mixture F-12 (DMEM/F-12; Thermo Fisher, Waltham, MA, USA) supplemented with FBS Charcoal Stripped, antibiotics (penicillin/streptomycin) and insulin, according to cell provider instructions, was used as the growth medium. Cells were used in passages between 7 and 12.
Cell viability assay was performed using CellTiter 96® AQueous One Solution Cell Proliferation Assay (Promega, Madison, WI, USA). MCF-7 cells were seeded at a density of 80 × 10^3 cells per well in a 96-well plate. Cells were exposed to the compounds and incubated at 37 °C with CO2 5% for 48 h prior tetrazolium reagent [3-(4,5-dimethylthiazol-2-yl)-5-(3-carboxymethoxyphenyl)-2-(4-sulfophenyl)-2H-tetrazolium] addition (20 µL/well). DMSO at a final concentration of 0.1% (as it is not associated with toxicity) was used as a negative control (set to 100% viability), and sodium dodecyl sulfate (SDS 10%) as positive control. After incubation period CellTiter reagent was added to the cells and further incubated for 3 h. After this time, absorbance was recorded at a wavelength of 490 nm by use of a microplate reader (Hidex Oy, Turku, Finland). All samples were performed in triplicates and repeated at least three times.

[8] = tested on: bacterial colonies; set-up: method as in PMID 11351422; conditions: cited from earlier work
[9] = tested on: plasmids; conditions: 50 μM, without redox-active metals; cited from earlier work
[10] = tested on: encephalomyocarditis virus; set-up: method as in PMID 35558500; conditions: cited from earlier work; for Antiviral potency relative to catechol: lowest tested concentration 0.4 mg/mL (approximately 3 mM)
[11] = set-up: method as in PMID 10956160, PMID 12065208; conditions: chronic high dose studies; cited from earlier work
[12] = tested on: rats; set-up: method as in PMID 10956160, PMID 12065208; conditions: cited from earlier work
[13] = tested on: mice; set-up: method as in PMID 10956160, PMID 12065208; conditions: cited from earlier work
[14] = tested on: three different cell lines; set-up: method as in PMID 26885667; conditions: 30 μM; cited from earlier work
[15] = tested on: platelet aggregation; conditions: cited from earlier work
[16] = tested on: thrombin pathway; conditions: cited from earlier work
[17] = set-up: method as in PMID 25571923; conditions: humans, on average; cited from earlier work
[18] = Homo sapiens, read-out: IC50 class, colour key of Figure 3
[19] = human whole blood, class assigned by colour of the drawn structure, read-out: IC50 class, colour key of Figure 3
[20] = human whole blood, read-out: IC50 (Mean ± SD, μM) on Arachidonic Acid-induced Platelet Aggregation

Compound: COc1ccccc1OC [1,2-dimethylcatechol, 1,2-dimethoxybenzene]
IC50 ([1]; Homo sapiens, read-out: IC50 (Mean ± SD, μM) on Arachidonic Acid-induced Platelet Aggregation): ~78 µM | IC50 [1, 18]: > 100 µM | Activity towards AA-induced aggregation (in words) ([1]; human whole blood): inactive

IC50 [1, 19]: > 100 µM | IC50 [1, 20]: ~32 µM
Compound: COc1ccc(C)c(OC)c1 [2,4-dimethoxytoluene]

Compound: Nc1ccccc1O [2-aminophenol]
IC50 [1, 20]: 6.65 ± 1.06 µM

IC50 [1, 19]: < 3 µM | IC50 [1, 20]: 1.37 ± 0.28 µM
Compound: CCc1ccc(O)c(OC)c1 [2-methoxy-4-ethylphenol]
IC25 [2]: 5.07 ± 4.05 µM | Activation of the Nrf2 pathway after its suppression by lipopolysaccharide ([3]; 10 μM): activated the Nrf2 pathway | Activation of the Nrf2 pathway ([3]; only concentrations higher than 650 μM were tested): activated the Nrf2 pathway | Anti-inflammatory activity [4]: anti-inflammatory activity was observed | Concentration from which mildly toxic [5]: about 660 μM and ~100 mg/L | Concentration below which toxicity was not observed [6]: ≥ 5 mM

IC50 [1, 19]: < 3 µM | IC50 [1, 20]: 2.57 ± 2.24 µM
Compound: COc1cc(C)ccc1O [2-methoxy-4-methylphenol]
IC25 [2]: 11.5 ± 9.05 µM | Effect on collagen-induced aggregation compared with ASA [2]: significantly more efficient than ASA

Compound: Oc1cc(Cl)cc(Cl)c1O [3,5-dichlorocatechol]
IC50 [1, 18]: > 10 µM | IC50 [1, 20]: 13.5 ± 1.57 µM | Cell proliferation / viability, MCF-7/S0.5 ([7]; 10 μM): not toxic | Cell proliferation / viability, MCF-7/S0.5 ([7]; 100 μM): decreased cell proliferation | Formation of bacterial colonies ([8]; 10 μM): blocked the formation of bacterial colonies | Antibacterial activity [8]: Antibacterial activity was observed | DNA damage [9]: no DNA damage was observed

IC50 [1, 20]: 3.82 ± 0.5 µM
Compound: Nc1cccc(O)c1O [3-aminocatechol]

IC50 [1, 19]: < 3 µM | IC50 [1, 20]: 1.74 ± 0.17 µM
Compound: Oc1cccc(F)c1O [3-fluorocatechol]

IC50 [1, 19]: < 3 µM | IC50 [1, 20]: 2.28 ± 0.3 µM
Compound: CC(C)c1cccc(O)c1O [3-isopropylcatechol]
IC25 [2]: 12.9 ± 21.3 µM | Cell proliferation / viability, MCF-7/S0.5 ([7]; 10 μM): not toxic | Cell proliferation / viability, MCF-7/S0.5 ([7]; 100 μM): decreased cell proliferation

Compound: COc1cccc(O)c1O [3-methoxycatechol]
IC50 [1, 20]: 7.92 ± 0.74 µM | Antiviral potency relative to catechol [10]: more potent

IC50 [1, 19]: < 3 µM | IC50 [1, 20]: 1.61 ± 0.17 µM
Compound: Cc1cccc(O)c1O [3-methylcatechol]
IC25 [2]: 7.15 ± 6.41 µM

Compound: Oc1cc(Cl)c(Cl)cc1O [4,5-dichlorocatechol]
IC50 [1, 20]: 3.35 ± 0.92 µM | IC25 [2]: 9.86 ± 15.1 µM | Cell proliferation / viability, MCF-7/S0.5 ([7]; 10 μM): not toxic | Cell proliferation / viability, MCF-7/S0.5 ([7]; 100 μM): decreased cell proliferation | Cell proliferation / viability, MCF-7/S0.5 ([7]; 100 μM, listed as 4,5-dichlorcatechol): blocked cell proliferation

IC50 [1, 19]: > 100 µM | IC50 [1, 20]: ~61 µM
Compound: C=CCc1ccc(OC)c(OC)c1 [4-allyl-1,2-dimethylcatechol, 4-allyl-1,2-dimethoxybenzene]
Activity towards AA-induced aggregation (in words) ([1]; human whole blood): inactive; also recorded: inactive or only weakly active | Rat plasma levels [11]: 4–46 μM and 0.66–8.25 μg/mL | Tumors [12]: elicited liver but also other tumors | Tumors [13]: elicited liver but also other tumors

IC50 [1, 19]: > 10 µM | IC50 [1, 20]: ~21 µM
Compound: Nc1ccc(O)c(O)c1 [4-aminocatechol]

Compound: Oc1ccc(Cl)cc1O [4-chlorocatechol]
IC50 [1, 20]: 3.66 ± 0.29 µM | Antibacterial activity [8]: Antibacterial activity was observed | DNA damage [9]: no DNA damage was observed

IC50 [1, 19]: < 3 µM | IC50 [1, 20]: 1.29 ± 0.14 µM
Compound: CCc1ccc(O)c(O)c1 [4-ethylcatechol]
IC25 [2]: 4.61 ± 1.16 µM | Effect on collagen-induced aggregation compared with ASA [2]: significantly more efficient than ASA | Antiviral potency relative to catechol [10]: more potent | Activation of Nrf2 [3]: clearly confirmed | Toxicity to cell lines [14]: not toxic

Compound: CCc1ccc(O)cc1 [4-ethylphenol]
Activation of Nrf2 [3]: inactive

IC50 [1, 19]: < 3 µM | IC50 [1, 20]: 1.82 ± 0.21 µM
Compound: Oc1ccc(F)cc1O [4-fluorocatechol]
IC25 [2]: 4.72 ± 0.28 µM | Effect on collagen-induced aggregation compared with ASA [2]: significantly more efficient than ASA

IC50 [1, 19]: < 3 µM | IC50 [1, 20]: 2.59 ± 0.17 µM
Compound: Cc1ccc(O)c(O)c1 [4-methylcatechol, reference compound]
IC25 [2]: 2.66 ± 2.21 µM | Toxicity to cell lines [14]: not toxic | Antiplatelet potency relative to acetylsalicylic acid (ASA) [15]: approximately ten times higher potency | Effect on thrombin pathway [16]: no effect

IC50 [1, 19]: > 10 µM | IC50 [1, 20]: 13.3 ± 1.57 µM
Compound: O=[N+]([O-])c1ccc(O)c(O)c1 [4-nitrocatechol]
Cell proliferation / viability, MCF-7/S0.5 ([7]; 10 μM): not toxic | Cell proliferation / viability, MCF-7/S0.5 ([7]; 100 μM): decreased cell proliferation

IC50 [1, 20]: 7.24 ± 3.75 µM
Compound: CC(C)(C)c1ccc(O)c(O)c1 [4-tert-butylcatechol]

Compound: C=Cc1ccc(O)c(O)c1 [4-vinylcatechol]
Toxicity to cell lines [14]: not toxic

Compound: CC(=O)Oc1ccccc1C(=O)O [ASA, acetylsalicylic acid, reference compound]
IC25 [2]: 26.9 ± 2.25 µM

Compound: Cc1ccccc1O [o-cresol]
IC50 [1, 18]: > 10 µM | IC50 [1, 20]: 12 ± 5.55 µM | Inhibition of platelet aggregation [15]: inhibited platelet aggregation | Effect on thrombin pathway [16]: no effect

Compound: Cc1ccccc1N [o-toluidine]
IC50 [1, 18]: > 100 µM | Activity towards AA-induced aggregation (in words) ([1]; human whole blood): inactive or only weakly active

Compound: O=S(=O)(O)Oc1ccccc1O [pyrocatechol-sulfate]
Plasma levels [17]: 12 µM

Compound: Oc1ccccc1O [pyrocatechol]
IC50 [1, 20]: 4 ± 0.45 µM | IC50 antiviral activity [10]: 0.67 mg/mL (≈ 6.08 mM) | IC50 ([10]; read-out: IC50 antiviral activity): 6 mM | Antibacterial activity [8]: Antibacterial activity was observed | Activation of Nrf2 [3]: clearly confirmed | Toxicity to cell lines [14]: not toxic
